Results reported in patent US12492181B2, “Gem-disubstituted piperidine melanocortin subtype-2 receptor (MC2R) antagonists and uses thereof” (Crinetics Pharmaceuticals, Inc., priority 2019, dated 2025).

Target: T1, hMC2 receptor (crude hMC2R membranes from CRE-bla-CHO-K1 cells stably expressing hMC2 receptor and hMRAP accessory protein) (Homo sapiens, UniProt Q01718)
T1 construct: crude membrane fractions
Assay: hMC2 membrane binding assay ([125I]ACTH (1-39) Tyr23, SPA)
Conditions: displacement of 0.2 nM [125I]ACTH (1-39) Tyr23 from hMC2R membranes, 1.5 hours at room temperature; read-out: MC2R binding potency
In short: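 Ki values come from non-linear regression of SPA scintillation counts, with compounds displacing [125I]ACTH(1-39) Tyr23. Membranes come from CRE-bla-CHO-K1 cells stably expressing hMC2 receptor together with hMRAP. They are preincubated with WGA-coated PVT SPA beads in 50 mM HEPES pH 7.4 with 0.20% BSA, Mg2+, Ca2+ and protease inhibitors.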

T1 sequence (Q01718 whole entry): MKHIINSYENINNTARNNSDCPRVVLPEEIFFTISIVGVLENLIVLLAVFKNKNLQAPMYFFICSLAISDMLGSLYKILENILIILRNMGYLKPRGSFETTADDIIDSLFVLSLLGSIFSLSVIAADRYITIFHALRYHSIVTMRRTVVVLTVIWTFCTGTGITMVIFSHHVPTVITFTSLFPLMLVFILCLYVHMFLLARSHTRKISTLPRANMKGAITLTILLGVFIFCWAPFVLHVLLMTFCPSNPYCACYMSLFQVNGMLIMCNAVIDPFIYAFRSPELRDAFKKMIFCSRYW
T1 sequence (Q8TCY5 whole entry partner): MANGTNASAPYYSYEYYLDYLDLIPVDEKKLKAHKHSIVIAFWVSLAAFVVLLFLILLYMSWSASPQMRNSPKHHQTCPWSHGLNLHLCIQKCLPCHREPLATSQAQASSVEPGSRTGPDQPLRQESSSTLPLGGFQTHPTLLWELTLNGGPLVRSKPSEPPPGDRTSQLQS

`CNC[C@H](C)NC(=O)C1(c2cnc(-c3cccn3C)c(F)c2)CCN(c2ccc(C(F)(F)F)cc2C#N)CC1` [Compound 1-326, 1-[2-cyano-4-(trifluoromethyl)phenyl]-4-[5-fluoro-6-(1-methyl-1H-pyrrol-2-yl)pyridin-3-yl]-N-[(2S)-1-(methylamino)propan-2-yl]piperidine-4-carboxamide] was tested, and the Ki was < 10 nM.
For `Cc1oncc1-c1ccc(C2(C(=O)N[C@@H]3CCN(C)C3)CCN(c3ccc(C(F)(F)F)cc3C#N)CC2)cn1` [Compound 1-157, 1-[2-cyano-4-(trifluoromethyl)phenyl]-4-[6-(5-methyl-1,2-oxazol-4-yl)pyridin-3-yl]-N-[(3R)-1-methylpyrrolidin-3-yl]piperidine-4-carboxamide], the Ki was 10 to 100 nM.
In the case of `COc1ccccc1-c1ccc(C2(C(=O)NC[C@H]3CCN3)CCN(c3ccc(C(F)(F)F)cc3C#N)CC2)cn1` [Compound 1-236, N-{[(2R)-azetidin-2-yl]methyl}-1-[2-cyano-4-(trifluoromethyl)phenyl]-4-[6-(2-methoxyphenyl)pyridin-3-yl]piperidine-4-carboxamide], the Ki is reported as < 10 nM.
With `CCOc1ncccc1-c1ncc(C2(C(=O)N[C@H]3CCN(C)C3)CCN(c3ccc(C(F)(F)F)cc3C#N)CC2)cc1F` [Compound 1-109, 1-[2-cyano-4-(trifluoromethyl)phenyl]-4-{2′-ethoxy-3-fluoro-[2,3′-bipyridin]-5-yl}-N-[(3S)-1-methylpyrrolidin-3-yl]piperidine-4-carboxamide] the Ki was < 10 nM.
For `CCOc1ncccc1-c1ccc(C2(C(=O)N[C@@H]3CCN(C)C3)CCN(c3ccc(C(F)(F)F)nc3C#N)CC2)cn1` [Compound 1-24, 1-[2-cyano-6-(trifluoromethyl)pyridin-3-yl]-4-{2′-ethoxy-[2,3′-bipyridin]-5-yl}-N-[(3R)-1-methylpyrrolidin-3-yl]piperidine-4-carboxamide], the Ki was < 10 nM.
`CCn1cccc1-c1ccc(C2(C(=O)N[C@H]3CCN(C)C3)CCN(c3ccc(C(F)(F)F)cc3C#N)CC2)cn1` [Compound 1-208, 1-[2-cyano-4-(trifluoromethyl)phenyl]-4-[6-(1-ethyl-1H-pyrrol-2-yl)pyridine-3-yl]-N-[(3S)-1-methylpyrrolidin-3-yl]piperidine-4-carboxamide] was tested, and the Ki was < 10 nM.
With `CN1CC[C@H](NC(=O)C2(c3ccc(-c4cccn4C)nc3)CCN(c3ccc(C(F)(F)F)cc3F)CC2)C1` [Compound 1-173, 1-[2-fluoro-4-(trifluoromethyl)phenyl]-4-[6-(1-methyl-1H-pyrrol-2-yl)pyridin-3-yl]-N-[(3S)-1-methylpyrrolidin-3-yl]piperidine-4-carboxamide] the Ki was < 10 nM.
Work on `COc1ccccc1-c1ccc(C2(C(=O)NC[C@H]3COCCN3C)CCN(c3ccc(C(F)(F)F)cc3C#N)CC2)cn1` [Compound 1-328, 1-[2-cyano-4-(trifluoromethyl)phenyl]-4-[6-(2-methoxyphenyl)pyridin-3-yl]-N-{[(3S)-4-methylmorpholin-3-yl]methyl}piperidine-4-carboxamide] yielded a Ki of 10 to 100 nM.
In the case of `CN1CC[C@H](NC(=O)C2(c3ccc(-c4ccccc4C(F)F)nc3)CCN(c3ccc(C(F)(F)F)cc3C#N)CC2)C1` [Compound 1-151, 1-[2-cyano-4-(trifluoromethyl)phenyl]-4-{6-[2-(difluoromethyl)phenyl]pyridin-3-yl}-N-[(3S)-1-methylpyrrolidin-3-yl]piperidine-4-carboxamide], the Ki is reported as < 10 nM.
In the case of `COc1ncc(F)cc1-c1ncc(C2(C(=O)N[C@H]3CCN(C)C3)CCN(c3ccc(C(F)(F)F)cc3F)CC2)cc1F` [Compound 1-210, 4-{3,5′-difluoro-2′-methoxy-[2,3′-bipyridin]-5-yl}-1-[2-fluoro-4-(trifluoromethyl)phenyl]-N-[(3S)-1-methylpyrrolidin-3-yl]piperidine-4-carboxamide], the Ki is reported as < 10 nM.
With `CCOc1ncccc1-c1ccc(C2(NC(=O)O[C@H]3CCN(C)C3)CCN(c3ccc(C(F)(F)F)cc3C#N)CC2)cn1` [Compound 2-18, (3S)-1-methylpyrrolidin-3-yl N-{1-[2-cyano-4-(trifluoromethyl)phenyl]-4-{2′-ethoxy-[2,3′-bipyridin]-5-yl}piperidin-4-yl}carbamate] the Ki was < 10 nM.
In the case of `CN1C[C@@H](F)C[C@H]1CNC(=O)C1(c2ccc(-c3cccn3C)nc2)CCN(c2ccc(C(F)(F)F)cc2C#N)CC1` [Compound 1-277, 1-[2-cyano-4-(trifluoromethyl)phenyl]-N-{[(2S,4S)-4-fluoro-1-methylpyrrolidin-2-yl]methyl}-4-[6-(1-methyl-1H-pyrrol-2-yl)pyridin-3-yl]piperidine-4-carboxamide], the Ki is reported as < 10 nM.
With `COc1ccccc1-c1ccc(C2(C(=O)N[C@H]3CCN(C)C3)CCN(c3ccc(C(F)(F)F)cc3C#N)CC2)cn1` [Compound 1-166, 1-[2-cyano-4-(trifluoromethyl)phenyl]-4-[6-(2-methoxyphenyl)pyridin-3-yl]-N-[(3S)-1-methylpyrrolidin-3-yl]piperidine-4-carboxamide] the Ki was < 10 nM.
`CCOc1ncccc1-c1ccc(C2(C(=O)N[C@@H]3CCNC3)CCN(c3ccc(C(F)(F)F)cc3C#N)CC2)nc1` [Compound 1-21, 1-[2-cyano-4-(trifluoromethyl)phenyl]-4-{2′-ethoxy-[3,3′-bipyridin]-6-yl}-N-[(3R)-pyrrolidin-3-yl]piperidine-4-carboxamide] was tested, and the Ki was < 10 nM.
`CCOc1ccccc1-c1ccc(C2(C(=O)N[C@H]3CCN(C)C3)CCN(c3ccc(F)cc3C#N)CC2)cn1` [Compound 1-96, 1-(2-cyano-4-fluorophenyl)-4-[6-(2-ethoxyphenyl)pyridin-3-yl]-N-[(3S)-1-methylpyrrolidin-3-yl]piperidine-4-carboxamide] was tested, and the Ki was < 10 nM.
For `Cn1cccc1-c1ccc(C2(C(=O)N[C@H]3CCNC3)CCN(c3ccc(C(F)(F)F)cc3C#N)CC2)cn1` [Compound 1-152, 1-[2-cyano-4-(trifluoromethyl)phenyl]-4-[6-(1-methyl-1H-pyrrol-2-yl)pyridin-3-yl]-N-[(3S)-pyrrolidin-3-yl]piperidine-4-carboxamide], the Ki was < 10 nM.
For `CCOc1ncccc1-c1ccc(C2(C(=O)N[C@H]3CCN(C)C3)CCN(c3ccc(C(F)(F)F)cc3Cl)CC2)cn1` [Compound 1-141, 1-[2-chloro-4-(trifluoromethyl)phenyl]-4-{2′-ethoxy-[2,3′-bipyridin]-5-yl}-N-[(3S)-1-methylpyrrolidin-3-yl]piperidine-4-carboxamide], the Ki was < 10 nM.
For `CCOc1ncccc1-c1ccc(C2(C(=O)N[C@H]3CCN(C)C3)CCN(c3ccc(C(F)(F)F)cc3F)CC2)nn1` [Compound 1-193, 4-[6-(2-ethoxypyridin-3-yl)pyridazin-3-yl]-1-[2-fluoro-4-(trifluoromethyl)phenyl]-N-[(3S)-1-methylpyrrolidin-3-yl]piperidine-4-carboxamide], the Ki was < 10 nM.
With `CCOc1ncccc1-c1ncc(C2(C(=O)N[C@H]3CCN(C)C3)CCN(c3ccc(C(F)(F)F)cc3C#N)CC2)cn1` [Compound 1-106, 1-[2-cyano-4-(trifluoromethyl)phenyl]-4-[2-(2-ethoxypyridin-3-yl)pyrimidin-5-yl]-N-[(3S)-1-methylpyrrolidin-3-yl]piperidine-4-carboxamide] the Ki was < 10 nM.
With `CCCOc1ccccc1-c1ccc(C2(C(=O)N[C@@H]3CCN(C)C3)CCN(c3ccc(C(F)(F)F)cc3C#N)CC2)cn1` [Compound 1-63, 1-[2-cyano-4-(trifluoromethyl)phenyl]-N-[(3R)-1-methylpyrrolidin-3-yl]-4-[6-(2-propoxyphenyl)pyridin-3-yl]piperidine-4-carboxamide] the Ki was < 10 nM.
With `CCOc1ncccc1-c1ccc(C2(NC(=O)CN(C)C)CCN(c3ccc(Cl)cc3C#N)CC2)cn1` [Compound 2-38, N-[1-(4-chloro-2-cyanophenyl)-4-{2′-ethoxy-[2,3′-bipyridin]-5-yl}piperidin-4-yl]-2-(dimethylamino)acetamide] the Ki was < 10 nM.
For `CCOc1ncccc1-c1ccc(C2(C(=O)NCCNC)CCN(c3ccc(C(F)(F)F)cc3F)CC2)cn1` [Compound 1-223, 4-{2′-ethoxy-[2,3′-bipyridin]-5-yl}-1-[2-fluoro-4-(trifluoromethyl)phenyl]-N-[2-(methylamino)ethyl]piperidine-4-carboxamide], the Ki was < 10 nM.
`C[C@H](CN(C)C)NC(=O)C1(c2ccc(-c3cccn3C)nc2)CCN(c2ccc(C(F)(F)F)cc2C#N)CC1` [Compound 1-260, 1-[2-cyano-4-(trifluoromethyl)phenyl]-N-[(2R)-1-(dimethylamino)propan-2-yl]-4-[6-(1-methyl-1H-pyrrol-2-yl)pyridin-3-yl]piperidine-4-carboxamide] was tested, and the Ki was < 10 nM.
For `COc1ccccc1-c1ccc(C2(C(=O)NC[C@H]3CN(C)CCO3)CCN(c3ccc(C(F)(F)F)cc3C#N)CC2)cn1` [Compound 1-327, 1-[2-cyano-4-(trifluoromethyl)phenyl]-4-[6-(2-methoxyphenyl)pyridin-3-yl]-N-{[(2S)-4-methylmorpholin-2-yl]methyl}piperidine-4-carboxamide], the Ki was 10 to 100 nM.
With `CCOc1ccccc1-c1ccc(C2(NC(=O)[C@H]3CCN(C)C3)CCN(c3ccc(C(F)(F)F)cc3C#N)CC2)cn1` [Compound 2-27, (3S)—N-{1-[2-cyano-4-(trifluoromethyl)phenyl]-4-[6-(2-ethoxyphenyl)pyridin-3-yl]piperidin-4-yl}-1-methylpyrrolidine-3-carboxamide] the Ki was < 10 nM.
In the case of `CN1CC[C@@H](OC(=O)NC2(c3ccc(-c4cccn4C)nc3)CCN(c3ccc(C(F)(F)F)cc3C#N)CC2)C1` [Compound 2-41, (3R)-1-methylpyrrolidin-3-yl N-{1-[2-cyano-4-(trifluoromethyl)phenyl]-4-[6-(1-methyl-1H-pyrrol-2-yl)pyridin-3-yl]piperidin-4-yl}carbamate], the Ki is reported as < 10 nM.
For `CCOc1ncccc1-c1ccc(C2(C(=O)NC[C@@H](C)N(C)C)CCN(c3ccc(C(F)(F)F)cc3C#N)CC2)cn1` [Compound 1-333, 1-[2-cyano-4-(trifluoromethyl)phenyl]-N-[(2R)-2-(dimethylamino)propyl]-4-{2′-ethoxy-[2,3′-bipyridin]-5-yl}piperidine-4-carboxamide], the Ki was < 10 nM.
